Results on 13 compounds are retold here after ChEMBL document CHEMBL1201862, “PubChem BioAssay data set” (2004).

Calls of active or inactive are those of the source.

Usually IC50 stands for the concentration that gives 50% inhibition. The term AC50 denotes the concentration at which the activity in the assay is half-maximal. One may read the EC50 as the concentration needed to bring the measured effect to its halfway point.

One test concerns the target Major prion protein (Homo sapiens, UniProt P04156). Type of test: functional, cell-based.
In test [1] the target is T1, Methionyl-tRNA synthetase, putative (Trypanosoma brucei brucei, UniProt Q38C91).
T1 sequence (Q38C91 whole entry): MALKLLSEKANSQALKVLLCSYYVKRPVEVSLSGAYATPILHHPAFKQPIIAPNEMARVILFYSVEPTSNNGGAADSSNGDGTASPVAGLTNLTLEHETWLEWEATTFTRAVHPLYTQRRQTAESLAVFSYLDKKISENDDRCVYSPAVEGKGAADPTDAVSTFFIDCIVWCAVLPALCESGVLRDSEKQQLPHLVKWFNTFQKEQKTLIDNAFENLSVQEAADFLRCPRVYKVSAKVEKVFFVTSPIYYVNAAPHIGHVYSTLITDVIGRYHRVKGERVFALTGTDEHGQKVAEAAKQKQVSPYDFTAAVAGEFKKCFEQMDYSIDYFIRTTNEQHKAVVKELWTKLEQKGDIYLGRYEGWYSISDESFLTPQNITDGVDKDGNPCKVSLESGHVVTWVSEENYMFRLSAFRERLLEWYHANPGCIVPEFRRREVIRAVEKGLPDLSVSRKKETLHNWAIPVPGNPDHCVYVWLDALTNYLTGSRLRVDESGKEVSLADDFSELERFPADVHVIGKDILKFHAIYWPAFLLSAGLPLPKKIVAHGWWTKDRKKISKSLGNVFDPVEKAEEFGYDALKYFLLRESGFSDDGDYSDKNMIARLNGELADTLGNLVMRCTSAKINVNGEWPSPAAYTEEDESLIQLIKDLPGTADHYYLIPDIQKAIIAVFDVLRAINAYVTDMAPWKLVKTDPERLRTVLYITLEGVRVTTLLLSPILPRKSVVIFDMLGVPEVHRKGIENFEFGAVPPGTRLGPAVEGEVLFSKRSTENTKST
Format: functional, Trypanosoma brucei brucei strain 927/4 GUTat10.1.

Test [2] can be described thus: Counterscreen for inhibitors of Trypanosoma brucei methionyl tRNA synthetase (MetRS): Luminescence-based cell-based high throughput dose response assay to identify compounds that are cytotoxic to Jurkat human T lymphocyte cells. Format: functional.
Test [3] deals with T1, Methionyl-tRNA synthetase, putative. Type of test: functional, Trypanosoma brucei brucei strain 927/4 GUTat10.1. This is another data set of the same source.
Test [4] is described as follows: HIV-1 AD8 envelope cell-cell fusion blockers – cherry-pick, dose response (AID 652062).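 Note: luciferase signal from cell-cell fusion driven by HIV-1 clade B AD8 Env; potency is for inhibitors of fusion seen as a drop in luminescence.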 Format: functional, cell-based.
Test [5] in a line: off-target signal loss in HeLa-CEM21 co-culture – HeLa F-luc CTL cells, cherry-picked, counter-screen for HIV-1 Env fusion inhibitor project, dose response (AID 652040).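 Note: potency for signal decrease marking cytotoxic or nonspecific inhibition.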 Type of test: functional, cell-based. (The purpose of a counterscreen is to sort out artefacts and off-target activity.)
The nature of test [6]: blockers of HIV-1 ZM109 envelope-driven cell-cell fusion – HeLa effector, CEM target cells, luciferase, cherry-pick, dose response (AID 652058).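 Note: luciferase signal from HIV-1 Env mediated cell-cell fusion of effector and target cells.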 Type of test: functional, cell-based.
The nature of test [7]: blockers of HIV-1 envelope-mediated cell-cell fusion – cherry-pick, dose response (AID 652057). Type of test: functional, cell-based.
A short description of test [8]: viability loss in CEM21 cells – cell-based, CellTiter-Glo luminescence, cherry-picked, cytotoxicity control for viral fusion inhibitor project, dose response (AID 652042).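 Note: potency for signal decrease meaning cytotoxicity.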 Format: functional.
In another test the test system is INS1. In words: INS-1E survival protection against cytokine death – cell-based, luminescence, retest, dose response (AID 449756).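 Note: cell death triggered by IL-1 beta plus TNF-alpha plus IFN-gamma mixture; protective hits raise ATP signal compared with cytokine alone wells.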 Type of test: functional. The note with it: Rattus norvegicus.
For the next test, the target named is Cytochrome P450 2C9 (Homo sapiens, UniProt P11712).
The next test addresses T2, Protein RecA (Mycobacterium tuberculosis, UniProt P9WHJ3).
T2 sequence (P9WHJ3 whole entry): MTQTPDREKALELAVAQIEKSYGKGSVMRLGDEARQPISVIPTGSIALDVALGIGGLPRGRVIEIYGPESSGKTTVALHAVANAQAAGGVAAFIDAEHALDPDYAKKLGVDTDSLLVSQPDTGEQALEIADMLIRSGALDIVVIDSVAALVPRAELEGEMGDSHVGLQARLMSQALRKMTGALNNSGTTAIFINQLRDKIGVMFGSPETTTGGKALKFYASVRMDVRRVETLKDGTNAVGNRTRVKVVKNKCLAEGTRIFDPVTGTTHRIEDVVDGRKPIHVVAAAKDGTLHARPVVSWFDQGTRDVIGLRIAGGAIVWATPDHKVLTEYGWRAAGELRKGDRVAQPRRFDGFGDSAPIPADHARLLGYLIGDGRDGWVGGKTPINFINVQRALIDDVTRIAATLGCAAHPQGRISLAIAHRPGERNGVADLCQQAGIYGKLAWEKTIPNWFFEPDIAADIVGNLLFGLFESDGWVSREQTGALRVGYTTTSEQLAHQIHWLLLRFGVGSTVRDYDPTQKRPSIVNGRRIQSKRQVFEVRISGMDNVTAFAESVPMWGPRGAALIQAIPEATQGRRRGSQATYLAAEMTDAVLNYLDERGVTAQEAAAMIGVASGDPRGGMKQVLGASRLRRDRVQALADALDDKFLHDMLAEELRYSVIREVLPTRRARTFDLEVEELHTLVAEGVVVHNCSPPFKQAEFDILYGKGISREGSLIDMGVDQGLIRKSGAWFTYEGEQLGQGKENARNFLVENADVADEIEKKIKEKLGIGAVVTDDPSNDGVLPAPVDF
The experiment in a line: Fluorescence Cell-Free Homogeneous Dose Retest to Identify Inhibitors of RecA-Intein Splicing Activity. [Related pubchem assays (depositor defined):AID2097, AID2223, AID489010, AID492950]. Format: functional.

Test [9] has as its target T3, Histone-lysine N-methyltransferase NSD2 (Homo sapiens, UniProt O96028).
T3 sequence (O96028 whole entry): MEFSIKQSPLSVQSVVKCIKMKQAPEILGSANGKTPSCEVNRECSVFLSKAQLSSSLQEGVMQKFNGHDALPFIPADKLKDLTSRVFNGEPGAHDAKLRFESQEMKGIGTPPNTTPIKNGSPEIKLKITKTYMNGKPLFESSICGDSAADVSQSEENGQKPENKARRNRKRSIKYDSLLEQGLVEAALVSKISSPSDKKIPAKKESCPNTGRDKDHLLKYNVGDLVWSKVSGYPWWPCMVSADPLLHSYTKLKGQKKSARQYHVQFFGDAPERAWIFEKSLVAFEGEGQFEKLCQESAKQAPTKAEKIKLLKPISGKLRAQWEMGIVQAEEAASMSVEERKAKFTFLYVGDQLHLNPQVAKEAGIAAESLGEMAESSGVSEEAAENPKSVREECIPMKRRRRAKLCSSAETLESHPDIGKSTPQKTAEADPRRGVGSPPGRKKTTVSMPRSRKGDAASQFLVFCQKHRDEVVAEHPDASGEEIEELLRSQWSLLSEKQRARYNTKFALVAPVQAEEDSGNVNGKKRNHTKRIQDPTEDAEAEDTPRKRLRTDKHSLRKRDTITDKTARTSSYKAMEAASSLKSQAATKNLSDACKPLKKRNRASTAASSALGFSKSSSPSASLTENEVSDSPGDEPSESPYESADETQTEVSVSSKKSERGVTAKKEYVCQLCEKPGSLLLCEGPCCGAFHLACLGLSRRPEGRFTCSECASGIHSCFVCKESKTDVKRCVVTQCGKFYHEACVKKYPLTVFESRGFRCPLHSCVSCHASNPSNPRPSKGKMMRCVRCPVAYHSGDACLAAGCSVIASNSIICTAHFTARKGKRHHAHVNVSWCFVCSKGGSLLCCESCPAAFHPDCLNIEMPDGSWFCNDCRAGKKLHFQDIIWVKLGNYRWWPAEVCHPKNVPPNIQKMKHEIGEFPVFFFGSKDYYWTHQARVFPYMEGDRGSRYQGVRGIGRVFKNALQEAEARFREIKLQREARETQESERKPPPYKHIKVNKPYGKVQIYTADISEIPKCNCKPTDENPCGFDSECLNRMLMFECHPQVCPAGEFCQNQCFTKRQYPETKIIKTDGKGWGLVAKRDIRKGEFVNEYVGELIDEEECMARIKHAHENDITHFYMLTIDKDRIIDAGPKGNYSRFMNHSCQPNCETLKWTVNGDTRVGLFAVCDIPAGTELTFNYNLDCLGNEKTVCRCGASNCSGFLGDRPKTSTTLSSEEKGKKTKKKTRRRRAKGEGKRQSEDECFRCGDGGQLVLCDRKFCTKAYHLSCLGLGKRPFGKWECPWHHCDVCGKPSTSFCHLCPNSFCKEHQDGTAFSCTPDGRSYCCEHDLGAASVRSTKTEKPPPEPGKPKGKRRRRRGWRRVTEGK
Type of test: biochemical.

Test [10] in a line: viability loss in MITF-independent A375 cells – cell-based, CellTiter-Glo luminescence, dry powder, set 2, counter-screen for MITF inhibitor project, dose response (AID 624489).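 Note: actives are compounds lowering A375 viability meaning general cytotoxicity.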 Type of test: functional. The settings on record: A-375. On the technique in general: Cellular ATP, detected with luciferase, serves as a proxy for viable cell number.
A short description of test [11]: cytotoxicity in MITF-independent A375 cells – cell-based, CellTiter-Glo luminescence, dry powder, set 4, counter-screen for MITF inhibitor project, dose response (AID 624364).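 Note: A375 melanoma cells are MITF independent so this is a counter screen.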 Type of test: functional. The note with it: A-375.
Test [12] deals with T4, Oxysterols receptor LXR-beta (Homo sapiens, UniProt P55055).
T4 sequence (P55055 whole entry): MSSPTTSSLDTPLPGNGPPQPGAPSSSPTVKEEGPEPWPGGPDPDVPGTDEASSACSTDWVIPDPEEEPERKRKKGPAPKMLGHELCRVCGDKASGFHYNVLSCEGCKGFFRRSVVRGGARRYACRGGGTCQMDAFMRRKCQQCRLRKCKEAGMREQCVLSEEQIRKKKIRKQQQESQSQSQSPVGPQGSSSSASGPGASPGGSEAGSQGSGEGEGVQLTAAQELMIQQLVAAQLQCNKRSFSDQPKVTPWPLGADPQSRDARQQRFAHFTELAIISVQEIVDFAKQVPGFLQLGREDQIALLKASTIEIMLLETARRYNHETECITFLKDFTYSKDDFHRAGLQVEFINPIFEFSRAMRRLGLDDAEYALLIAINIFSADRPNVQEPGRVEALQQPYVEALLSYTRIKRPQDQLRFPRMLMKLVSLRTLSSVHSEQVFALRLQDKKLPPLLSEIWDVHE
Format: functional, cell-based.

Cytochrome P450 2C9, sequence (P11712 whole entry): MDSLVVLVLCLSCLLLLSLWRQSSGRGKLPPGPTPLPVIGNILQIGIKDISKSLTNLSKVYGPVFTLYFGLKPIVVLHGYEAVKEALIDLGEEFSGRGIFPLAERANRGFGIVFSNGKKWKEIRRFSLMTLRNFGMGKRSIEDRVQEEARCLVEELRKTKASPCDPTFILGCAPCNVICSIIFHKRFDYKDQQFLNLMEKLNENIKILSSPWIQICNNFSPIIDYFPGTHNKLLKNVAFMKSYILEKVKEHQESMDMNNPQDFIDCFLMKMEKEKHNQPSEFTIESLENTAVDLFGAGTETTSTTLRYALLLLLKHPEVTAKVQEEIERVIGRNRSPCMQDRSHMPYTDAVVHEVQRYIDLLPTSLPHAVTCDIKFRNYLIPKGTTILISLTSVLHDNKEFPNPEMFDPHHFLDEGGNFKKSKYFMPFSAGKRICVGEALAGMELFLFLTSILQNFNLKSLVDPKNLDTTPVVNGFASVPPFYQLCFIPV

As to `CC1(C)Cc2ccccc2-c2[nH]c(=S)[nH]c(=O)c21`, the IC50 on Major prion protein was 4.55 µM (active).
Take `CC1(C)Cc2ccccc2-c2nc(S)nc(O)c21`: the IC50 in the test “cells” is > 138 µM (inactive).
Consider `Cc1[nH]c2ccccc2c1C(=O)C(=O)NCCc1ccc(S(N)(=O)=O)cc1`, for which the results for the IC50 in [1], in test [2] and in test [3] were 6.63 µM (active), 83.3 µM (inactive) and 14.8 µM (inactive), respectively.
Consider `CCOC(=O)CSc1nc(-c2ccccc2)nc2ccccc12`, for which the IC50 is 1.73 µM (active) on Major prion protein and > 138 µM (inactive) in the test “cells”.
For the compound `CCNS(=O)(=O)c1ccc(CCC(=O)Nc2cc(Cl)ccc2Oc2ccccc2)cc1`, the concentration at half-maximal activity (AC50) in test [4] is 11.6 µM (active); in [5], 12 µM (active); in [6] it was 2.17 µM (active); in [7], 5.54 µM (active); in test [8], 40.5 µM (active).
As to `CCn1c(-c2ccc(C)cc2)nn(CC(=O)NCCc2ccccc2)c1=S`, the AC50 was 5.9 µM (active) with INS1; 6.95 µM (active) in test [4]; 7.04 µM (active) in test [5]; 4.85 µM (active) in test [6]; 8.88 µM (active) in test [7]; 51.1 µM (active) in test [8].
Turning to `Clc1ccccc1-c1ccc2ncnc(NCc3cccnc3)c2c1`, the AC50 at Cytochrome P450 2C9 is 794 nM (inconclusive). The IC50 in [1] is 17.1 µM (inactive); in test [2], 83.3 µM (inactive); in [3], 14.1 µM (inactive).
In the case of `CC(=O)c1ccc(NC(=O)c2ccc(-n3cncn3)c([N+](=O)[O-])c2)cc1`, the IC50 is 4.12 µM (active) in test [1], 83.3 µM (inactive) in test [2] and 7.16 µM (active) in test [3].
Turning to `OCCN=C(S)Nc1ccc2nsnc2c1`, at Protein RecA, the EC50 was 26 µM (active). Besides, the AC50 in test [9] was 10.5 µM (active).
For `CCOC(=O)CSc1nc(COc2ccccc2)nc2ccccc12`, the IC50 is 8.25 µM (active) at Major prion protein and > 138 µM (inactive) in “cells”.
Turning to `CCN(CC)CCCNC1=C(N(C)C(C)=O)C(=O)c2ccccc2C1=O`, the AC50 in [10] was 2.91 µM (active); in test [11] it was 5.33 µM (active).
Turning to `Cc1ccc(/C=N/NC(=O)c2ccoc2C)s1`, the EC50 in test [12] is > 67.6 µM (inactive).
As to `CC(=O)NC1=C(c2ccc(Oc3ccccc3)cc2)C(=O)c2ccccc2C1=O`, the half-maximal activity concentration (AC50) in test [10] is 31.2 µM (active); in test [11] it was 59 µM (active).
